Data: patent publication US9365588B2, “Benzoxazines as modulators of ion channels” (Vertex Pharmaceuticals Incorporated, priority 2011, dated 2016)

Target: human NaV 1.7 (Homo sapiens, UniProt Q15858)
Test: E-VIPR optical membrane potential assay with electrical stimulation
Assay type: cell-based
Details: sodium channel inhibition; read-out: Binned Activity Data (IC50)
Excerpt: Assays for Detecting and Measuring NaV Inhibition Properties of Compound E-VIPR Optical Membrane Potential Assay Method with Electrical Stimulation
Sodium channels are voltage-dependent proteins that can be activated by inducing membrane voltage changes by applying electric fields. The electrical stimulation instrument and methods of use are described in Ion Channel Assay Methods PCT/US01/21652, herein incorporated by reference and are referred to as E-VIPR. The instrument comprises a microtiter plate handler, an optical system for exciting the coumarin dye while simultaneously recording the coumarin and oxonol emissions, a waveform generator, a current- or voltage-controlled amplifier, and a device for inserting electrodes in well. Under integrated computer control, this instrument passes user-programmed electrical stimulus protocols to cells within the wells of the microtiter plate.
24 hours before the assay on E-VIPR, HEK cells expressing human NaV subtype, like NaV 1.7, are seeded in 384-well poly-lysine coated plates at 15,000-20,000 cells per well. Other subtypes are performed in an analogous mode in a cell line expressing the NaV of interest. HEK cells are grown in media (exact composition is specific to each cell type and NaV subtype) supplemented with 10% FBS (Fetal Bovine Serum, qualified; GibcoBRL #16140-071) and 1% Pen-Strep (Penicillin-Streptomycin; GibcoBRL #15140-122). Cells are grown in vented cap flasks, in 90% humidity and 10% CO2, to 100% confluence. They are usually split by trypsinization 1:10 or 1:20, depending on scheduling needs, and grown for 2-3 days before the next split.
Bath1 buffer. Glucose 10 mM (1.8 g/L), Magnesium Chloride (Anhydrous), 1 mM (0.095 g/L), Calcium Chloride, 2 mM (0.222 g/L), HEPES 10 mM (2.38 g/L), Potassium Chloride, 4.5 mM (0.335 g/L), Sodium Chloride 160 mM (9.35 g/L).
Hexyl Dye Solution: Bath1 Buffer+0.5% β-cyclodextrin (make this prior to use, Sigma #C4767), 8 μM CC2-DMPE+2.5 μM DiSBAC6(3). To make the solution Add volume of 10% Pluronic F127 stock equal to volumes of CC2-DMPE+DiSBAC6(3). The order of preparation is first mix Pluronic and CC2-DMPE, then add DiSBAC6(3) while vortexing, then add Bath1+β-Cyclodextrin.
1) Pre-spot compounds (in neat DMSO) into compound plates. Vehicle control (neat DMSO), the positive control (20 mM DMSO stock tetracaine, 125 μM final in assay) and test compounds are added to each well at 160× desired final concentration in neat DMSO. Final compound plate volume will be 80 μL (80-fold intermediate dilution from 1 μL DMSO spot; 160-fold final dilution after transfer to cell plate). Final DMSO concentration for all wells in assay is 0.625%.
2) Prepare Hexyl Dye Solution.
3) Prepare cell plates. On the day of the assay, medium is aspirated and cells are washed three times with 100 μL of Bath1 Solution, maintaining 25 μL residual volume in each well.
4) Dispense 25 μL per well of Hexyl Dye Solution into cell plates. Incubate for 20-35 minutes at room temp or ambient conditions.
5) Dispense 80 μL per well of Bath1 into compound plates. Acid Yellow-17 (1 mM) is added and Potassium Chloride can be altered from 4.5 to 20 mM depending on the NaV subtype and assay sensitivity.
6) Wash cell plates three times with 100 μL per well of Bath1, leaving 25 μL of residual volume. Then transfer 25 uL per well from Compound Plates to Cell Plates. Incubate for 20-35 minutes at room temp/ambient condition
7) Read Plate on E-VIPR. Use the current-controlled amplifier to deliver stimulation wave pulses for typically 9 seconds and a scan rate of 400 Hz. A pre-stimulus recording is performed for 0.5 seconds to obtain the un-stimulated intensities baseline. The stimulatory waveform is applied for 9 seconds followed by 0.5 seconds of post-stimulation recording to examine the relaxation to the resting state. […]

human NaV 1.7, sequence (Q15858 whole entry): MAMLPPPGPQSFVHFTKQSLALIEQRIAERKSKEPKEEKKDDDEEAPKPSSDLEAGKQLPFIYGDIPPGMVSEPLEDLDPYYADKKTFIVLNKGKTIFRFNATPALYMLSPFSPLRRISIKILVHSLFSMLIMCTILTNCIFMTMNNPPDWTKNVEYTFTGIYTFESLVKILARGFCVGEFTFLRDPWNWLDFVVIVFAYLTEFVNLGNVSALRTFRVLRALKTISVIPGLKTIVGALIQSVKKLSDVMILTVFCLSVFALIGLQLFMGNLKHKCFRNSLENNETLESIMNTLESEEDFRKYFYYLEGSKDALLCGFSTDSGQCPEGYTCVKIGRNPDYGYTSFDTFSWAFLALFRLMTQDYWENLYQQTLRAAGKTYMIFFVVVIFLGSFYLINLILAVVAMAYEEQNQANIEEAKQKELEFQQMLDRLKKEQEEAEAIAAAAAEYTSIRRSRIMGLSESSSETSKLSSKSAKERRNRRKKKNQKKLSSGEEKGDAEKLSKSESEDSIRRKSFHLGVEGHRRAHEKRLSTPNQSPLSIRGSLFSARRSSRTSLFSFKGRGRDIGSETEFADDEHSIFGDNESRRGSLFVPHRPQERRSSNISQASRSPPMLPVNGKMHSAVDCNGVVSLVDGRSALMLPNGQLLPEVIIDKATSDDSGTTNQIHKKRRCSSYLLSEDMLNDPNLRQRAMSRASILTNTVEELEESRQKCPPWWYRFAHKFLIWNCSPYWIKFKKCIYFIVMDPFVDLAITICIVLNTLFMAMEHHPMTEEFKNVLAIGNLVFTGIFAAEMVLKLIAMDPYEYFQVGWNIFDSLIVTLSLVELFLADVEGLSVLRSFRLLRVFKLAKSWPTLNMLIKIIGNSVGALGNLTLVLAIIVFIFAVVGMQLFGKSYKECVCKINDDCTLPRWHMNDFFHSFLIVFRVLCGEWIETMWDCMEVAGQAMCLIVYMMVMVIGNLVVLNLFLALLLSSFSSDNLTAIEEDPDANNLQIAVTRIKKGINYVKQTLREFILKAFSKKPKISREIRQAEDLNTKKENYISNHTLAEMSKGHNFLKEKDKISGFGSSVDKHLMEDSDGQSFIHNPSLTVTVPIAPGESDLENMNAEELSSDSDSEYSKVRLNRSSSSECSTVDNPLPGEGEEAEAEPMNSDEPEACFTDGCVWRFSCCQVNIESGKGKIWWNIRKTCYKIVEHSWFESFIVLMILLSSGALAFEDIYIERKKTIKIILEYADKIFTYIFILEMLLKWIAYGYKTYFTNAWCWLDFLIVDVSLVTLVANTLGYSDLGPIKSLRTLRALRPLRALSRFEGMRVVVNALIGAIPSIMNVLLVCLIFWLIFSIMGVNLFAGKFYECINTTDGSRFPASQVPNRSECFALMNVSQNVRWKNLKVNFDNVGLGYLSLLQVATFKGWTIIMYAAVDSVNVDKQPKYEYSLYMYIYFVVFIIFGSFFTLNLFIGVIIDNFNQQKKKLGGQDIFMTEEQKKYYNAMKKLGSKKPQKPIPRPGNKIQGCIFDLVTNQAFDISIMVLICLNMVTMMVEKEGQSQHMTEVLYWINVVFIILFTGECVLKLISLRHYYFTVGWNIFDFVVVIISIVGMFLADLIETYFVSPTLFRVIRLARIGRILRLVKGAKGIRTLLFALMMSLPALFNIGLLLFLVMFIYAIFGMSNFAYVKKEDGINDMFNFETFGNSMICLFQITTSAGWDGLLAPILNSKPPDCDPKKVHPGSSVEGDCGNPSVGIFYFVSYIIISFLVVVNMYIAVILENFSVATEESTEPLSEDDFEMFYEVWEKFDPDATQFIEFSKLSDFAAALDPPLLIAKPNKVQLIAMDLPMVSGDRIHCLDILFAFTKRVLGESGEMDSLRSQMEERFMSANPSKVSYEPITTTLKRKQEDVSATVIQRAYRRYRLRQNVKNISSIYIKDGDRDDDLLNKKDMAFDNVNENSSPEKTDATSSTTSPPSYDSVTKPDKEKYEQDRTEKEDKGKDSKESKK

| Structure (SMILES) | IC50 [nM] |
| --- | --- |
| O=C(c1ccc(S(=O)(=O)CCO)cc1)N1CCC2(CC1)Oc1ccccc1-n1c(C(F)(F)F)ccc12 [Compound 794] | > 5000 |
| N#Cc1ccc2n1-c1ccccc1OC21CCN(C(=O)c2ccc(S(=O)(=O)NCCCO)cc2)CC1 [Compound 540] | 2000 to 5000 |
| COc1cccc(F)c1C(=O)N1CCC2(CC1)Oc1ccccc1-n1c2ccc1S(C)(=O)=O [Compound 614] | 2000 to 5000 |
| N#Cc1ccc2n1-c1ccccc1OC21CCN(C(=O)c2ccc(OCCO)cc2)CC1 [Compound 197] | ≤ 2000 |
| COc1cc(C(=O)N2CCC3(CC2)Oc2ccccc2-c2c3cnn2C)ccc1C(C)(C)O [Compound 537] | ≤ 2000 |
| Cc1cc(C(=O)N2CCC3(CC2)Oc2ccccc2-c2c3cnn2C)cc(C)c1OC(C)C [Compound 745] | ≤ 2000 |
| COc1cc(C)ccc1C(=O)N1CCC2(CC1)Oc1ccccc1-c1c2cnn1C [Compound 465] | ≤ 2000 |
| Cc1cc(C(=O)N2CCC3(CC2)Oc2cccnc2-c2c3cnn2C)ccc1OC(C)C [Compound 271] | > 5000 |
| COc1cc(C(=O)N2CCC3(CC2)Oc2cc(F)ccc2-n2cccc23)ccc1C(C)(C)O [Compound 168] | ≤ 2000 |
| Cn1ncc2c1-c1ccccc1OC21CCN(C(=O)c2cccc3c2OC(C)(C)C3)CC1 [Compound 350] | ≤ 2000 |
| COc1cc(C(=O)N2CCC3(CC2)Oc2cc(F)ccc2-n2cccc23)ccc1OC[C@@H]1COC(C)(C)O1 [Compound 693] | ≤ 2000 |
| COc1ncccc1C(=O)N1CCC2(CC1)Oc1ccccc1-c1c2cnn1C [Compound 642] | 2000 to 5000 |
| CN(C)c1cc(C(=O)N2CCC3(CC2)Oc2ccccc2-c2c3cnn2C)ccn1 [Compound 499] | 2000 to 5000 |
| Cc1cc(C(=O)N2CCC3(CC2)Oc2ccccc2-n2c(C(F)(F)F)ccc23)ccc1S(=O)(=O)N(C)C [Compound 413] | ≤ 2000 |
| Cn1ncc2c1-c1ccccc1OC21CCN(C(=O)c2cccc3cccnc23)CC1 [Compound 651] | ≤ 2000 |
| COc1cc(C(=O)N2CCC3(CC2)Oc2cc(Cl)ccc2-n2cccc23)ccc1C(C)(C)OC [Compound 497] | ≤ 2000 |
| N#Cc1ccc2n1-c1ccccc1OC21CCN(C(=O)c2ccc(F)c(Cl)c2)CC1 [Compound 659] | > 5000 |

Second part, the compound after the results:

| IC50 [nM] | Structure (SMILES) |
| --- | --- |
| ≤ 2000 | O=C(c1ccccc1OC(F)F)N1CCC2(CC1)Oc1cc(Cl)ccc1-n1cccc12 [Compound 21] |
| ≤ 2000 | Cn1cc2c(n1)-c1ccccc1OC21CCN(C(=O)c2ccccc2OC(F)F)CC1 [Compound 740] |
| ≤ 2000 | COc1cc(C(=O)N2CCC3(CC2)Oc2ccccc2-c2c3cnn2C)ccc1OC(C)(C)C [Compound 313] |
| ≤ 2000 | CC(C)(C)c1ccc(C(=O)N2CCC3(CC2)Oc2ccccc2-n2cccc23)cc1C#N [Compound 419] |
| ≤ 2000 | CC(C)Oc1ccc(C(=O)N2CCC3(CC2)Oc2cc(C#N)ccc2-n2cccc23)cc1 [Compound 208] |
| ≤ 2000 | COc1cc(C(=O)N2CCC3(CC2)Oc2ccccc2-n2cccc23)ccc1OC[C@@H](O)CO [Compound 140] |
| ≤ 2000 | Cc1ccc(C(=O)N2CCC3(CC2)Oc2ccccc2-c2c3cnn2C)c(Cl)c1 [Compound 773] |
| ≤ 2000 | COc1ccc(C(=O)N2CCC3(CC2)Oc2ccccc2-n2cccc23)cc1C(F)(F)F [Compound 477] |
| ≤ 2000 | CCc1ccc(C(=O)N2CCC3(CC2)Oc2cc(C(=O)NC)ccc2-n2cccc23)cc1OC [Compound 713] |
| ≤ 2000 | CCc1ccc(C(=O)N2CCC3(CC2)Oc2ccccc2-n2cccc23)cc1OC [Compound 239] |
| ≤ 2000 | CCn1ncc2c1-c1ccccc1OC21CCN(C(=O)c2ccc(OC(C)C)c(C)c2)CC1 [Compound 410] |
| ≤ 2000 | COc1cc(C(=O)N2CCC3(CC2)Oc2ccccc2-c2c3cnn2C)ccc1C(C)(C)CO [Compound 716] |
| ≤ 2000 | COc1cc(C(=O)N2CCC3(CC2)Oc2ccccc2-c2c3cnn2C)ccc1OC(C)C [Compound 256] |
| ≤ 2000 | Cc1cc(C(=O)N2CCC3(CC2)Oc2ccccc2-n2c(C)ccc23)ccc1OC(C)C [Compound 359] |
